Values after ≈ are worked out from the molar mass of the structure shown. “Also recorded” adds a separate entry of the source.
Legend:
[1] = test system: Cryptococcus neoformans ATCC 90113; assay: In vitro antimicrobial assay, C. neoformans; format: cell-based; conditions: ATCC90113, read-out: C. neoformans IC50
[2] = test system: Plasmodium falciparum (W2 clone); assay: In vitro antimalarial assay; format: cell-based; conditions: W2, 72 h, read-out: P. falciparum (W2 clone) IC50
[3] = test system: Plasmodium falciparum (D6 clone); assay: In vitro antimalarial assay; format: cell-based; conditions: for IC50: Plasmodium falciparum, D6, 72 h, read-out: P. falciparum (D6 clone) IC50
[4] = test system: Plasmodium berghei infected mice; assay: In vivo antimalarial assay, multiple oral dose; conditions: 3×5 mg/Kg
[5] = test system: mice inoculated with P. berghei; assay: Initial in vivo evaluation; conditions: 3×10 mg/kg P.O.
[6] = test system: Mycobacterium intracellulare ATCC 23068; assay: In vitro antimicrobial assay, M. intracellulare; format: cell-based; conditions: ATCC23068, read-out: M. intracellulare IC50
M. tuberculosis (H37Rv) = assay: In vitro activity against M. tuberculosis; format: cell-based; conditions: Mycobacterium tuberculosis, read-out: M. tuberculosis (H37Rv) MIC
[7] = test system: Candida albicans ATCC 90028; assay: In vitro antimicrobial assay, C. albicans; format: cell-based; conditions: ATCC90028, read-out: C. albicans IC50
rat neonatal microglia = assay: Microglia LDH release; format: cell-based; conditions: for cytotoxicity (lactate dehydrogenase release) at highest concentration tested: 10 μM; for LDH LDH50: concentration causing 50% of maximal LDH release triggered by 0.1% Triton X-100
[8] = Stability in aqueous solution; format: physicochemical; conditions: over twenty-four months, exposure to light, room temperature, 0.05 N HCl aqueous solution (20 mg/mL)
[9] = test system: malarial parasites in mice; conditions: oral administration 2×100 μmol/Kg; cited from earlier work
[10] = test system: Mycobacterium tuberculosis; conditions: cited from earlier work
Staphylococcus aureus = conditions: cited from earlier work
[11] = test system: methicillin-resistant Staphylococcus aureus; conditions: cited from earlier work
GSK-3β = conditions: panel of CDK-1, PKA, CDK-5, MAPK, GSK-3α; cited from earlier work
CDK-5 = conditions: panel of CDK-1, PKA, CDK-5, MAPK, GSK-3α; cited from earlier work
in vitro = conditions: dog, MDCK-MDR1, pH 7.4
[12] = test system: Plasmodium berghei infected mice; assay: In vivo antimalarial assay, oral single dose
[13] = test system: mice infected with malarial parasites; assay: In vivo antimalarial assay, intraperitoneal administration; conditions: for toxicity / adverse reactions: i.p. 10×3 mg/kg in infected mice; for Cure (number of mice without parasitemia through day 28 post infection): of 5 mice
Vero cells = conditions: African green monkey
[14] = i.p. 10×3 mg/kg, mean parasitemia in control group as 100%

Work on `C[C@@H]1[C@H](O)[C@@H](C)/C=C/C=C/C=C/C=C/C=C/C=C/C=C/[C@H](O[C@@H]2O[C@H](C)[C@@H](O)[C@H](N)[C@@H]2O)C[C@@H]2O[C@](O)(C[C@@H](O)C[C@@H](O)[C@H](O)CC[C@@H](O)C[C@@H](O)CC(=O)O[C@H]1C)C[C@H](O)[C@H]2C(=O)O` [Amphotericin B, reference compound] yielded an IC50 [1] of 0.75 µg/mL (≈ 0.812 µM).

`C[C@@H]1CC[C@H]2[C@@H](C)C(=O)O[C@@H]3O[C@@]4(C)CC[C@@H]1[C@]32OO4` [Artemisinin, reference compound] gave an IC50 [2] of 0.008 µg/mL (≈ 0.0283 µM).

For `CCN(CC)CCCC(C)Nc1ccnc2cc(Cl)ccc12` (centres unmarked) [Chloroquine], the IC50 [3] was 0.016 µg/mL (≈ 0.05 µM), the IC50 [2] was 0.155 µg/mL (≈ 0.485 µM) and the “MST Days” value [4] was over 30 days. For the same compound, the “Inhibition of Parasitemia (%)” value ([4]; day 5 post infection vs untreated controls) was 88%, the “Average % Parasitemia” value ([4]; day 7 post infection) was 4.5% and the “Average % Parasitemia” value ([4]; day 10 post infection) was 7.8%. For the same compound, the “Average % Parasitemia” value ([4]; day 14 post infection) was 13.5%, the “Average % Parasitemia” value ([4]; day 21 post infection) was 21.7% and the “Average % Parasitemia” value ([4]; day 28 post infection) was 39.3%. For the same compound, the mean survival time [5] was 14.3 days.

Compound `O=C(O)c1cn(C2CC2)c2cc(N3CCNCC3)c(F)cc2c1=O` [Ciprofloxacin, reference compound] has an IC50 [6] of 0.3 µg/mL (≈ 0.905 µM).

With `O[C@]12C=C(c3nccc4c3[nH]c3ccccc34)[C@@H]3CCN(CCCC/C=C\CC1)C[C@@]31C[C@@H]3/C=C\CCCCN3[C@H]12` [Compound 1, manzamine A] the IC50 [3] was 0.0045 µg/mL (≈ 0.0082 µM), the IC50 [2] was 0.008 µg/mL (≈ 0.0146 µM) and the MIC (M. tuberculosis (H37Rv)) was 1.5 µg/mL (≈ 2.73 µM). The IC50 [7] was 2 µg/mL (≈ 3.64 µM), the IC50 [1] was 1.5 µg/mL (≈ 2.73 µM) and the IC50 [6] was 0.35 µg/mL (≈ 0.638 µM). The “cytotoxicity (lactate dehydrogenase release) at highest concentration tested” value (from here on “cytotoxicity”) (rat neonatal microglia) was “minimal cytotoxicity”, the “LDH LDH50” value (rat neonatal microglia) was over 10 µM and the “stability (decomposition) in aqueous solution” value [8] was “No significant decomposition”. For the same compound, the reduction in parasitemia [9] was 90%, the “inhibition of Mycobacterium tuberculosis” value [10] was 98-99% and the “IC50 against Staphylococcus aureus” value (Staphylococcus aureus) was 0.5 µg/mL (≈ 0.911 µM). For the same compound, the “IC50 against methicillin-resistant Staphylococcus aureus” value [11] was 0.7 µg/mL (≈ 1.28 µM), the “inhibition of GSK-3β” value (GSK-3β) was “specifically inhibited” and the “inhibition of CDK-5” value (CDK-5) was “specifically inhibited”. For the same compound, the efflux ratio at 2 h, 50 μM (in vitro) was under 1, the “behavioral signs of toxicity” value ([12]; single oral dose 100 mg/kg) was “did not show any behavioral signs of toxicity” and the signs of toxicity ([12]; single oral dose 200 or 300 mg/kg) was “began to exhibit signs of toxicity beyond weight loss”. The “Survival (number of animal survived day 28/total animal in group)” value ([13]; i.p. 10×3 mg/kg) was 0/5, the “toxicity / adverse reactions” value [13] was “toxic” and the “%parasitemia suppression Day 5” value [13, 14] was 100%. The “Cure (number of mice without parasitemia through day 28 post infection)” value ([13]; i.p. 10×3 mg/kg) was 0/5.

`Oc1cccc2c1[nH]c1c(C3=C[C@@]4(O)CC/C=C\CCCCN5CC[C@@H]3[C@]3(CC6/C=C\CCCCN6[C@H]34)C5)nccc12` (some centres unmarked) [Compound 2, 8-hydroxymanzamine A] showed an IC50 [3] of 0.006 µg/mL (≈ 0.0106 µM), an IC50 [2] of 0.008 µg/mL (≈ 0.0142 µM) and an IC50 [7] of 3.5 µg/mL (≈ 6.2 µM). For the same compound, the IC50 [1] was 2 µg/mL (≈ 3.54 µM), the IC50 [6] was 0.1 µg/mL (≈ 0.177 µM) and the reduction in parasitemia [9] was 90%. The “inhibition of Mycobacterium tuberculosis” value [10] was 98-99%, the “Survival (number of animal survived day 28/total animal in group)” value ([13]; i.p. 10×3 mg/kg) was 5/5 and the “toxicity / adverse reactions” value [13] was “mild reversible weight loss”. For the same compound, the “MST (mean survival time)” value ([13]; i.p. 10×3 mg/kg, * death related to toxicity) was over 28 days, the “%parasitemia suppression Day 5” value [13, 14] was 100% and the “%parasitemia suppression Day 7” value [13, 14] was 100%. The “Cure (number of mice without parasitemia through day 28 post infection)” value ([13]; i.p. 10×3 mg/kg) was 4/5.

`O[C@]12C=C(c3nccc4c3[nH]c3ccccc34)[C@@H]3CCN(CCCCCCCC1)C[C@@]31C[C@@H]3CCCCCCN3[C@H]12` [Compound 3, 15,16,32,33-tetrahydromanzamine A] gave an IC50 [3] of 0.082 µg/mL (≈ 0.148 µM).

With `O[C@]12C=C(c3nccc4c3[nH]c3ccccc34)[C@@H]3CCN(CCCC/C=C\CC1)C[C@@]31C[C@@H]3CCCCCCN3[C@H]12` [Compound 5, Dihydromanzamine A] the IC50 [3] was 0.2 µg/mL (≈ 0.363 µM).

In the case of `CCCCn1c2ccccc2c2ccnc(C3=C[C@@]4(O)CC/C=C\CCCCN5CC[C@@H]3[C@]3(C[C@@H]6/C=C\CCCCN6[C@H]34)C5)c21` [Compound 6d, 9N-butylmanzamine A], the “cytotoxicity” value (rat neonatal microglia) is reported as “minimal cytotoxicity; also recorded: no toxicity” and the “LDH LDH50” value (rat neonatal microglia) is reported as over 10 µM.

In the case of `CC(C)CCn1c2ccccc2c2ccnc(C3=C[C@@]4(O)CC/C=C\CCCCN5CC[C@@H]3[C@]3(C[C@@H]6/C=C\CCCCN6[C@H]34)C5)c21` [Compound 6f, 9N-isopentylmanzamine A], the “LDH LDH50” value (rat neonatal microglia) is reported as over 10 µM.

With `CC(C)(C)Cn1c2ccccc2c2ccnc(C3=C[C@@]4(O)CC/C=C\CCCCN5CC[C@@H]3[C@]3(C[C@@H]6/C=C\CCCCN6[C@H]34)C5)c21` [Compound 6g, 9N-neopentylmanzamine A] the “cytotoxicity” value (rat neonatal microglia) was “minimal cytotoxicity; also recorded: no toxicity” and the “LDH LDH50” value (rat neonatal microglia) was over 10 µM.

For `CC(=O)Oc1cccc2c1[nH]c1c(C3=C[C@@]4(O)CC/C=C\CCCCN5CC[C@@H]3[C@]3(C[C@@H]6/C=C\CCCCN6[C@H]34)C5)nccc12` [Compound 9, 8-Acetoxymanzamine A], the IC50 [7] was 1.5 µg/mL (≈ 2.47 µM), the IC50 [1] was 1.5 µg/mL (≈ 2.47 µM) and the IC50 [6] was 0.1 µg/mL (≈ 0.165 µM).

`[O-][N+]12CCCC/C=C\CC[C@]3(O)C=C(c4nccc5c4[nH]c4ccccc45)[C@H](CC1)[C@]1(C[C@@H]4/C=C\CCCC[N@+]4([O-])[C@H]13)C2` [Compound 13, 21, 27-N-oxamanzamine A] gave an IC50 [3] of 0.017 µg/mL (≈ 0.0293 µM) and an IC50 [2] of 0.067 µg/mL (≈ 0.115 µM).

Work on `O=C1CCCN2[C@@H](CC1)C[C@]13CN4CCCC/C=C\CC[C@](O)(C=C(c5nccc6c5[nH]c5c(O)cccc56)C1CC4)[C@H]23` (some centres unmarked) [Compound 14, manzamine F] yielded an IC50 [3] of 0.78 µg/mL (≈ 1.34 µM) and an IC50 [1] of 6.5 µg/mL (≈ 11.2 µM).

For `N/N=C1/CCCN2[C@@H](CC1)C[C@]13CN4CCCC/C=C\CC[C@](O)(C=C(c5nccc6c5[nH]c5c(O)cccc56)[C@@H]1CC4)[C@H]23` [Compound 15, Manzamine F-31-hydrazone], the IC50 [3] was 0.029 µg/mL (≈ 0.0488 µM) and the “no toxicity against Vero cells at the highest tested concentration” value (Vero cells) was over 4.6 µg/mL.

In the case of `Oc1cccc2c1[nH]c1c(C3=C[C@@]4(O)CC/C=C\CCCCN5CC[C@@H]3[C@]3(C[C@@H]6CC[C@H](O)CCCN6[C@H]34)C5)nccc12` [Compound 16, 31β-Hydroxymanzamine F], the “P. falciparum (D6 clone) IC50” value ([3]; chloroquine sensitive D6 clone, 72 h) is reported as “did not improve the antimalarial activity”.

With `CC[C@@]1(O)CCCN2[C@@H](CC1)C[C@]13CN4CCCC/C=C\CC[C@](O)(C=C(c5nccc6c5[nH]c5c(O)cccc56)[C@@H]1CC4)[C@H]23` [Compound 18, 31-Ethylmanzamine F] the IC50 [2] was 0.086 µg/mL (≈ 0.141 µM) and the “no toxicity against Vero cells at the highest tested concentration” value (Vero cells) was over 4.6 µg/mL.

In the case of `COc1ccc2[nH]c3c(C4=C[C@@]5(O)CC/C=C\CCCCN6CC[C@@H]4[C@]4(C[C@@H]7/C=C\CCCCN7[C@H]45)C6)nccc3c2c1` [Compound 21a, 6-Methoxymanzamine A], the “cytotoxicity” value (rat neonatal microglia) is reported as “minimal cytotoxicity; also recorded: no toxicity” and the “LDH LDH50” value (rat neonatal microglia) is reported as over 10 µM.

With `COC(=O)c1cc2c([nH]c3ccccc32)c(C2=C[C@@]3(O)CC/C=C\CCCCN4CC[C@@H]2[C@]2(C[C@@H]5/C=C\CCCCN5[C@H]23)C4)n1` [Compound 21b, Methyl manzamine A-3-carboxylate] the “cytotoxicity” value (rat neonatal microglia) was “minimal cytotoxicity; also recorded: no toxicity” and the “LDH LDH50” value (rat neonatal microglia) was over 10 µM.
